Like-named read-outs stand apart in the source and are kept apart here. One block for each compound: values may come before it.
Experiments:
[1] = test system: serum polyclonal antirhamnose antibodies (human IgG); assay: BLI affinity of rhamnose probes for polyclonal human IgG; format: binding; settings: for kon: anti-rhamnose assumed 3% of total IgG; for koff: dissociation in 100 mM L-rhamnose
Excerpt: We began by synthesizing antirhamnose affinity probes consisting of α-O/α-S and β-S rhamnose glycosides functionalized with a propargyl group for CuAAC-mediated coupling to a biotin TBD (compounds 1–3, Figure 1A and Scheme S1). This enabled rhamnose immobilization onto streptavidin surfaces and subsequent antibody binding studies. We used biolayer interferometry (BLI) to estimate and compare the apparent affinity of serum polyclonal antirhamnose antibodies for each rhamnose affinity probe (Figure 1B). […] Next, biosensors were submerged in a buffer containing free rhamnose competitor, and dissociation kinetics were measured (Figure 1B, Dissociation). The dissociation buffer contained 100 mM rhamnose competitor to inhibit avidity-based antibody rebinding, which interferes with koff measurements. […] In the context of proximity-inducing molecule development, this low monovalent sugar-binding affinity will ultimately limit ternary complex formation. […] The confirmation of low affinity binding also supports why multivalency has been historically required to efficiently engage antirhamnose antibodies for tumor-immune proximity induction and engage sugar binding receptors in general.
Figure 1 Affinity determination of endogenous and monoclonal antibody sources for L-rhamnose glycoside variants. A. Chemical structures of rhamnose affinity probes. B/C. Approximation of antirhamnose antibody binding affinity for probes 1–3 using biolayer interferometry. B. Purified human serum IgG is used to estimate the affinity of endogenous polyclonal serum antirhamnose antibodies for each affinity probe 1–3. C. Monoclonal anti-23F antibody is used to estimate the potential affinity of vaccine-induced antirhamnose antibodies for each affinity probe 1–3. […] Association was monitored for 900 (B) or 600 (C) seconds. The loaded biosensor probe was then dipped into a dissociation solution of 100 mM L-rhamnose for 600 s. Association curves were fit to a two-phase association model in GraphPad Prism using Kfast to calculate kon. Dissociation curves were similarly fit to a two-phase decay using Kfast to calculate koff. TEXT PRINTED IN THE PICTURE: (B) no label printed: Polyclonal Human IgG: Kd ≈ 7 x10^-5 M | (C) no label printed: Monoclonal Anti-23F: Kd ≈ 6 x10^-6 M DOUBTS OF THE COPYIST ABOUT THIS PICTURE: Panel B, Kd ≈ 7 x10^-5 M: printed once in the plot with no link to a single curve, so it is unclear which of (1) α–O, (2) α–S and (3) β–S it applies to / Panel C, Kd ≈ 6 x10^-6 M: printed once in the plot with no link to a single curve, so it is unclear which of (1) α–O, (2) α–S and (3) β–S it applies to […]
General Notes and Materials […]
Biolayer Interferometry (BLI) General notes and Materials
IgG from human serum was purchased from Innovative Research (IHUI GGAP1000MG). Anti -23F antibody was purchased fr om Creative Biolabs (PABX -173). Biolayer Interferometry (BLI) was conducted using a ForteBio Octet Red96, and streptavidin biosensors (Sartorius - 18-5019) or ProG biosensors (Sartorius – 18-5082). For quench, a 5% skim milk (Nestle Carnation Instant Skim Milk) solution in 1X kinetics buffer was used. The instrument was set at 25 °C, with 1000 RPM, and acquisition rate of 5 Hz.
Each well of a black well plate (Greiner Bio -One - 655086) was filled with 200 µL of appropriate solution.
Dissociation buffer was comprised of L-rhamnose (100 mM, Sigma Aldrich – R3875-10G) in 1X kinetics buffer to reduce avidity contribution to dissociation rate (koff).
SDS-PAGE General notes and Materials […]
Carboxyfluorescein was purchased from Sigma Aldrich (21877 -5G-F). IgG from human serum was purchased from Innovative Research (IHUIGGAP1000MG). Anti -23F antibody was purchased from Creative Biolabs (PABX -173). Laemellie Buffer (2x) was purchased from Sigma Aldrich (S3401 -10VL).
Pre-cast Tris-Glycine Gels (4-20%) were purchased from Fisher Scientific (XP04202BOX). Standard protein ladder was purchased from Bio Rad (1610363). […]

[2] = test system: human serum antirhamnose antibody (IgG and IgM); assay: ELISA covalent engagement of serum anti-rhamnose antibody; format: binding; settings: 2 μM compound, 2% human serum, 48 h; rhamnose 100 mM added after incubation
Method: Figure 2 Capacity of Rha-cARMs to specifically covalently engage monoclonal anti-23F and serum anti-rhamnose. A. Chemical structures of the molecules investigated. B. Assessment of covalent vs noncovalent (cARM/ARM) engagement of human serum antirhamnose antibody via an ELISA assay. Each ARM/cARM (2 μM) was incubated with 2% human serum for 48 h and subsequently incubated directly on a streptavidin ELISA plate. Recruitment was evaluated by the addition of anti-IgG or anti-IgM HRP-conjugated secondary antibody with subsequent chromogenic substrate addition. “Comp” represents the addition of competitor rhamnose (500 mM) during 48 h of incubation. “Quench” refers to the addition of competitor rhamnose (100 mM) prior to ELISA plate binding but after 48 h of reaction incubation. C. SDS-PAGE fluorescent image of anti-23F antibody covalently labeled by fluorophore substituted Rha-cARMs (6–8). A representative protein stain associated with each gel is included on the left side of the fluorescent gel images. In all cases, 2 μM anti-23F antibody is incubated with 4 μM cARM (2 equiv) for 24 h in PBS spiked with 10% human serum. Where noted, L-rhamnose (100 mM, Rha. C) was used during incubation as a competitor for specific covalent labeling. Where noted, a free fluoresceine competitor (2.5 mM, Fluor. C) was used to distinguish fluorescein-promoted covalent labeling from rhamnose-promoted. The darker background in gels corresponding to cARM 6, 7 is attributed to the differing capacity of free cARM-fluorophore (fluoroscein vs A647) to be retained in gel, as well as an alternative imaging channel (Cy2 for fluorescein, Cy5 for A647). […] D. Kinetic SDS-PAGE fluorescence imaging experiment to determine Rha-AI-cARM/anti-23F antibody labeling kinetics using A647-cARM (8). cARM 8 (2–100 μM) was incubated with anti-23F antibody (2 μM) for up to 4 h. A representative fluorescence gel image is included corresponding to compound 8 (50 μM) incubated with either anti-23F antibody or isotype human IgG. Densitometry analysis with ImageJ was used to quantify relative band intensities. […] The error is calculated by alternative fits of initial rates data (all within the linear labeling range).
Next, we tested if cARM tool compounds can selectively label endogenous human polyclonal antirhamnose antibodies via ELISA (4 α-O rhamnose or 5 α-S rhamnose) (Figure 2B). cARMs (4, 5) and noncovalent analog ARMs (1, 2) were incubated with 2% human serum for 48 h followed by addition to a streptavidin-ELISA plate. Antibody recruitment to the plate surface was measured via the addition of HRP-conjugated anti-IgG or anti-IgM secondary antibody, followed by a chromogenic substrate. […] In the absence of a competitor, we observed robust absorbance signal in samples incubated with cARM. […]

[3] = target: prostate-specific membrane antigen (PSMA); settings: cited from earlier work

Kd ([1]; 26.2 µM IgG, read-out: Kd): 29 µM
Kd ([1]; 52.5 µM IgG, read-out: Kd): 42 µM
Kd ([1]; 105 µM IgG, read-out: Kd): 62 µM
Kd ([1]; average of three IgG concentrations, read-out: Avg Kd): 44 ± 17 µM
Compound: C[C@@H]1O[C@H](SCc2cn(CCOCCNC(=O)OCCOCCOCCOCCOCCOCCOCCOCCNC(=O)CCCC[C@@H]3SC[C@@H]4NC(=O)N[C@@H]43)nn2)[C@H](O)[C@H](O)[C@H]1O [compound 3]
kon ([1]; 26.2 µM IgG): 19771 M⁻¹ s⁻¹
koff ([1]; 26.2 µM IgG): 0.576 s⁻¹
kon ([1]; 52.5 µM IgG): 11537 M⁻¹ s⁻¹
koff ([1]; 52.5 µM IgG): 0.481 s⁻¹
kon ([1]; 105 µM IgG): 6254 M⁻¹ s⁻¹
koff ([1]; 105 µM IgG): 0.3901 s⁻¹

Compound: C[C@@H]1O[C@@H](SCc2cn(CCc3cn(C(=O)OCCOCCOCCOCCOCCOCCOCCOCCNC(=O)CCCC[C@@H]4SC[C@@H]5NC(=O)N[C@@H]54)cn3)nn2)[C@H](O)[C@H](O)[C@H]1O [compound 5]
antibody binding signal, quench control [2]: significant antibody binding signal

Compound: glutamate urea [GU]
Kd [3]: < 0.01 µM

From publication PMC10683482, “Offsetting Low-Affinity Carbohydrate Binding with Covalency to Engage Sugar-Specific Proteins for Tumor-Immune Proximity Induction” (ACS Central Science, 2023)
